Assay results reported in patent publication US8440794B2, “Peptide sequences, their branched form and use thereof for antimicrobial applications” (Universita' Degli Studi di Siena, priority 2008, dated 2013).
≈ marks a conversion by molar mass, not a printed value. Where a SMILES comes first, the peptide text is derived from it. Bridges are numbered along the chain shown (N, C = ends). Roman numbers before positions name the chains, in order. [ ]: non-standard residue; d: D form. βAla = NCCC(=O)O

Assays:
K pneumoniae FIPP-1 = format: cell-based, Klebsiella pneumoniae; settings: FIPP-1, 24 h
Protocol: (§1) M33, […], M35 and M36 MICs were determined against strains of several bacterial species, including Gram-negative pathogens and also Staphylococcus aureus (Table 1). MICs in the micromolar range were observed against several Gram-negatives including Pseudomonas aeruginosa, Acinetobacter baumannii and most Enterobacteriaceae, with the exception of Proteus mirabilis, Serratia marcescens and Burkholderia cepacia. Activity of peptides was retained against MDR strains with various resistance mechanisms (such as extended-spectrum beta-lactamases and carbapenemases), including MDR P. aeruginosa strains from CF patients. Antimicrobial profile of M33, […] and potency were overall similar to those of polymyxin B, although M33, M34, M35 and M36 also appeared to have some activity against S. aureus (Table 1).

K pneumoniae 7086042 = format: cell-based, Klebsiella pneumoniae; settings: 7086042, 24 h
Protocol: as §1

K pneumoniae C8-27 = format: cell-based, Klebsiella pneumoniae; settings: C8-27, 24 h
Protocol: as §1

A. baumannii RUH 875 = format: cell-based, Acinetobacter baumannii; settings: RUH 875, 24 h
Protocol: as §1

A. baumannii MR157 = format: cell-based, Acinetobacter baumannii; settings: MR157, 24 h
Protocol: as §1

[1] = tested on: P. aeruginosa SC-DMr05-04; format: cell-based, Pseudomonas aeruginosa; settings: SC-DMr05-04, 24 h
Protocol: as §1

P. aeruginosa PAO-1 = format: cell-based, Pseudomonas aeruginosa; settings: PAO-1, 24 h
Protocol: as §1

[2] = tested on: P. aeruginosa SC-GMm03-05; format: cell-based, Pseudomonas aeruginosa; settings: SC-GMm03-05, 24 h
Protocol: as §1

[3] = tested on: P. aeruginosa SC-CNm03-07; format: cell-based, Pseudomonas aeruginosa; settings: SC-CNm03-07, 24 h
Protocol: as §1

[4] = tested on: P. aeruginosa SC-MDr03-06; format: cell-based, Pseudomonas aeruginosa; settings: SC-MDr03-06, 24 h
Protocol: as §1

P. aeruginosa VR-143/97 = format: cell-based, Pseudomonas aeruginosa; settings: VR-143/97, 24 h
Protocol: as §1

P. aeruginosa EF-OBG6-1 = format: cell-based, Pseudomonas aeruginosa; settings: EF-OBG6-1, 24 h
Protocol: as §1

P. aeruginosa AV65 = format: cell-based, Pseudomonas aeruginosa; settings: AV65, 24 h
Protocol: as §1

[5] = tested on: P. aeruginosa SC-MDm03-02; format: cell-based, Pseudomonas aeruginosa; settings: SC-MDm03-02, 24 h
Protocol: as §1

[6] = tested on: P. aeruginosa SC-BGr12-02; format: cell-based, Pseudomonas aeruginosa; settings: SC-BGr12-02, 24 h
Protocol: as §1

[7] = tested on: P. aeruginosa SC-VMr04-05; format: cell-based, Pseudomonas aeruginosa; settings: SC-VMr04-05, 24 h
Protocol: as §1

[8] = tested on: Burkholderia cepacia ORB-99; format: cell-based; settings: 24 h
Protocol: as §1

[9] = tested on: Serratia marcescens W03BG0003; format: cell-based; settings: W03BG0003, 24 h
Protocol: as §1

[10] = tested on: Proteus mirabilis W03VA1017; format: cell-based; settings: W03VA1017, 24 h
Protocol: as §1

[11] = tested on: Enterobacer aerogenes W03BG0067; format: cell-based; settings: 24 h
Protocol: as §1

[12] = tested on: Staphylococcus aureus ATCC 29213; format: cell-based; settings: ATCC 29213, 24 h
Protocol: as §1

[13] = tested on: Escherichia coli ATCC 25922; format: cell-based; settings: ATCC 25922, 24 h
Protocol: as §1

[14] = tested on: Pseudomonas aeruginosa ATCC 27853; format: cell-based; settings: ATCC 27853, 24 h
Protocol: as §1

[15] = tested on: Acinetobacter baumannii RUH 134; format: cell-based; settings: RUH 134, 24 h
Protocol: as §1

[16] = tested on: Klebsiella pneumoniae ATCC 13833; format: cell-based; settings: ATCC 13833, 24 h
Protocol: as §1

[17] = tested on: Enterobacter cloacae W03AN0041; format: cell-based; settings: W03AN0041, 24 h
Protocol: as §1

human erythrocytes = format: cell-based
Protocol: FIG. 2. Percentage of haemolysis provoked by tetra-branched M33 peptide incubated 3 or 24 hours with human red blood cells.
Haemolysis of fresh human erythrocytes was determined using the method of Parpart, summarized as follows. A calibration curve was constructed by suspending fresh human erythrocytes in phosphate buffer (pH 7.4, 110 mM sodium phosphate) with various concentrations of NaCl and incubated for 30 min at room temperature. Samples were centrifuged at 500×g for 5 minutes, and haemoglobin release was monitored by measuring the absorbance of supernatants at 540 nm. The absorbance obtained with 0.1% NaCl corresponded to 100% lysis and that with 1% NaCl, to 0% lysis. Peptides dissolved in PBS were added to human erythrocyte solution at several concentrations. The resulting suspension was incubated separately at 37° C. for 2 h and 24 h. Release of hemoglobin was monitored by measuring the absorbance of the suspernatant at 540 nm after centrifuging and haemolysis percentage was calculated using the calibration curve.

S. aureus 3851 = format: cell-based, Staphylococcus aureus; settings: 3851, 24 h
Protocol: as §1

E. coli W03BG0025 = format: cell-based, Escherichia coli; settings: W03BG0025, 24 h
Protocol: as §1

Row | Compound | MIC (K pneumoniae FIPP-1) [µM] | MIC (K pneumoniae 7086042) [µM] | MIC (K pneumoniae C8-27) [µM] | MIC (A. baumannii RUH 875) [µM] | MIC (A. baumannii MR157) [µM] | MIC [1] [µM] | MIC (P. aeruginosa PAO-1) [µM] | MIC [2] [µM] | MIC [3] [µM] | MIC [4] [µM] | MIC (P. aeruginosa VR-143/97) [µM] | MIC (P. aeruginosa EF-OBG6-1) [µM] | MIC (P. aeruginosa AV65) [µM] | MIC [5] [µM] | MIC [6] [µM] | MIC [7] [µM] | MIC [8] [µM] | MIC [9] [µM] | MIC [10] [µM] | MIC [11] [µM] | further results
1 | CC[C@H](C)[C@H](NC(=O)[C@H](CCCCN)NC(=O)[C@@H](N)CCCNC(=N)N)C(=O)N[C@@H](CCCNC(=N)N)C(=O)N[C@H](C(=O)N[C@@H](CCCNC(=N)N)C(=O)N[C@@H](CC(C)C)C(=O)N[C@@H](CO)C(=O)N[C@@H](C)C(=O)NCCCC[C@H](NC(=O)[C@H](C)NC(=O)[C@H](CO)NC(=O)[C@H](CC(C)C)NC(=O)[C@H](CCCNC(=N)N)NC(=O)[C@@H](NC(=O)[C@H](CCCNC(=N)N)NC(=O)[C@@H](NC(=O)[C@H](CCCCN)NC(=O)[C@@H](N)CCCNC(=N)N)[C@@H](C)CC)C(C)C)C(=O)NCCCC[C@H](NC(=O)[C@H](CCCCNC(=O)[C@H](C)NC(=O)[C@H](CO)NC(=O)[C@H](CC(C)C)NC(=O)[C@H](CCCNC(=N)N)NC(=O)[C@@H](NC(=O)[C@H](CCCNC(=N)N)NC(=O)[C@@H](NC(=O)[C@H](CCCCN)NC(=O)[C@@H](N)CCCNC(=N)N)[C@@H](C)CC)C(C)C)NC(=O)[C@H](C)NC(=O)[C@H](CO)NC(=O)[C@H](CC(C)C)NC(=O)[C@H](CCCNC(=N)N)NC(=O)[C@@H](NC(=O)[C@H](CCCNC(=N)N)NC(=O)[C@@H](NC(=O)[C@H](CCCCN)NC(=O)[C@@H](N)CCCNC(=N)N)[C@@H](C)CC)C(C)C)C(=O)NCCC(=O)O)C(C)C [M36, RKIRVRLSA] (I: H-RKIRVRLSAKK[βAla]-OH / II: H-RKIRVRLSAK / III: H-RKIRVRLSA / IV: H-RKIRVRLSA; amide I:10-IV:C, I:11-II:C, II:10-III:C; N-terminus assumed) | 3 (≈ 14.4 µg/mL) | 3 (≈ 14.4 µg/mL) | 1.5 (≈ 7.19 µg/mL) | 3 (≈ 14.4 µg/mL) | 3 (≈ 14.4 µg/mL) | 1.5 (≈ 7.19 µg/mL) | 1.5 (≈ 7.19 µg/mL) | 1.5 (≈ 7.19 µg/mL) | 0.3 (≈ 1.44 µg/mL) | 3 (≈ 14.4 µg/mL) | 1.5 (≈ 7.19 µg/mL) | 1.5 (≈ 7.19 µg/mL) | 1.5 (≈ 7.19 µg/mL) | 3 (≈ 14.4 µg/mL) | 1.5 (≈ 7.19 µg/mL) | 3 (≈ 14.4 µg/mL) | >24 | >24 | >24 | 1.5 (≈ 7.19 µg/mL) | MIC [12]: 6 µM (≈ 28.8 µg/mL); MIC [13]: 1.5 µM (≈ 7.19 µg/mL); MIC [14]: 1.5 µM (≈ 7.19 µg/mL); MIC [15]: 1.5 µM (≈ 7.19 µg/mL); MIC [16]: 1.5 µM (≈ 7.19 µg/mL); MIC [17]: 3 µM (≈ 14.4 µg/mL); Haemolysis of human red blood cells (human erythrocytes): practically negligible haemolysis grade; MIC (S. aureus 3851): 6 µM (≈ 28.8 µg/mL); MIC (E. coli W03BG0025): 1.5 µM (≈ 7.19 µg/mL)
2 | CC[C@H](C)[C@H](NC(=O)[C@H](CCCNC(=N)N)NC(=O)[C@@H](N)CCCCN)C(=O)N[C@@H](CCCNC(=N)N)C(=O)N[C@H](C(=O)N[C@@H](CCCNC(=N)N)C(=O)N[C@@H](CC(C)C)C(=O)N[C@@H](CO)C(=O)N[C@@H](C)C(=O)NCCCC[C@H](NC(=O)[C@H](C)NC(=O)[C@H](CO)NC(=O)[C@H](CC(C)C)NC(=O)[C@H](CCCNC(=N)N)NC(=O)[C@@H](NC(=O)[C@H](CCCNC(=N)N)NC(=O)[C@@H](NC(=O)[C@H](CCCNC(=N)N)NC(=O)[C@@H](N)CCCCN)[C@@H](C)CC)C(C)C)C(=O)NCCCC[C@H](NC(=O)[C@H](CCCCNC(=O)[C@H](C)NC(=O)[C@H](CO)NC(=O)[C@H](CC(C)C)NC(=O)[C@H](CCCNC(=N)N)NC(=O)[C@@H](NC(=O)[C@H](CCCNC(=N)N)NC(=O)[C@@H](NC(=O)[C@H](CCCNC(=N)N)NC(=O)[C@@H](N)CCCCN)[C@@H](C)CC)C(C)C)NC(=O)[C@H](C)NC(=O)[C@H](CO)NC(=O)[C@H](CC(C)C)NC(=O)[C@H](CCCNC(=N)N)NC(=O)[C@@H](NC(=O)[C@H](CCCNC(=N)N)NC(=O)[C@@H](NC(=O)[C@H](CCCNC(=N)N)NC(=O)[C@@H](N)CCCCN)[C@@H](C)CC)C(C)C)C(=O)NCCC(=O)O)C(C)C [M35, KRIRVRLSA] (I: H-KRIRVRLSAKK[βAla]-OH / II: H-KRIRVRLSAK / III: H-KRIRVRLSA / IV: H-KRIRVRLSA; amide I:10-IV:C, I:11-II:C, II:10-III:C; N-terminus assumed) | 3 (≈ 14.4 µg/mL) | 3 (≈ 14.4 µg/mL) | 1.5 (≈ 7.19 µg/mL) | 3 (≈ 14.4 µg/mL) | 3 (≈ 14.4 µg/mL) | 1.5 (≈ 7.19 µg/mL) | 1.5 (≈ 7.19 µg/mL) | 1.5 (≈ 7.19 µg/mL) | 1.5 (≈ 7.19 µg/mL) | 3 (≈ 14.4 µg/mL) | 1.5 (≈ 7.19 µg/mL) | 1.5 (≈ 7.19 µg/mL) | 1.5 (≈ 7.19 µg/mL) | 3 (≈ 14.4 µg/mL) | 1.5 (≈ 7.19 µg/mL) | 3 (≈ 14.4 µg/mL) | >24 | >24 | >24 | 1.5 (≈ 7.19 µg/mL) | MIC [12]: 6 µM (≈ 28.8 µg/mL); MIC [13]: 1.5 µM (≈ 7.19 µg/mL); MIC [14]: 1.5 µM (≈ 7.19 µg/mL); MIC [15]: 1.5 µM (≈ 7.19 µg/mL); MIC [16]: 3 µM (≈ 14.4 µg/mL); MIC [17]: 1.5 µM (≈ 7.19 µg/mL); Haemolysis of human red blood cells (human erythrocytes): practically negligible haemolysis grade; MIC (S. aureus 3851): 6 µM (≈ 28.8 µg/mL); MIC (E. coli W03BG0025): 1.5 µM (≈ 7.19 µg/mL)
